How the values were obtained:
RAW cells = assay: iNOS and IL-1β mRNA expression by RT-PCR after BAL treatment; assay type: cell-based; conditions: RAW cells treated with SNO-OE-BAL in the presence of the NF-κB inhibitor
Procedure: RAW cells were treated with BAL prepared from overexpressing mice, either with or without prior transnitrosation with L-SNOC.
RAW cells were treated with OE-BAL or SNO-OE-BAL in the presence and absence of the NF-κB inhibitor caffeic acid phenethyl ester (CAPE).

SP-D multimer = biological target: T1, SP-D multimer (Rattus norvegicus, UniProt P35248); assay: SP-D multimer disruption, native gel electrophoresis and Western blot; assay type: biochemical; conditions: for disruption of the SP-D multimer: RrSP-D, 25 mM, 37° C., 20 minutes, native gel
T1 sequence (P35248 20-374): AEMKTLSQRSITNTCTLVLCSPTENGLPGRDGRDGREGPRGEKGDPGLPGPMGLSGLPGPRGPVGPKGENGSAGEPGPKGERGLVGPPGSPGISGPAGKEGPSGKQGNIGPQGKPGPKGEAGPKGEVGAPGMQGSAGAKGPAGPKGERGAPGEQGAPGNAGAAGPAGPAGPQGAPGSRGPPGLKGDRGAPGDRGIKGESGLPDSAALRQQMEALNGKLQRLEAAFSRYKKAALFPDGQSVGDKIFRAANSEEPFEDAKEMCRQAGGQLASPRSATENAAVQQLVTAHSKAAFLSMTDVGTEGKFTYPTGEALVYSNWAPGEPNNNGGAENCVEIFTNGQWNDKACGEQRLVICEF

RrSP-D = biological target: T2, RrSP-D (Rattus norvegicus, UniProt P35248); assay: SP-D trimer/structure disruption, SDS-PAGE and Western blot; assay type: biochemical; conditions: for disruption of SP-D structure (specificity): 50 ng RrSP-D, equimolar concentration, non-reducing denaturing SDS-PAGE
T2 sequence (P35248 20-374): T1 sequence (P35248 20-374)
Procedure: FIG. 12A provides a hydrophobicity plot of the designed peptide CJ-1 (SEQ ID NO: 1). CJ-1 was directly derived from SP-D sequence within which cysteine residues are located in the hydrophobic pocket. RrSP-D (50 ng) was incubated with or without CJ-1 (10 mM) or DTT (10 mM) at 37° C. for 20 minutes (FIG. 12B). […] RrSP-D (50 ng) was incubated with different doses of CJ-1 (0.01-10 mM) at 37° C. for 20 minutes.
By matching the reduced cysteines within the peptide to those in the target protein one can specifically disrupt structure. Using 50 ng of RrSP-D the effect of an equimolar concentration of CJ-1, targeted peptide; CJ-2, a scrambled version of CJ-1 with no hydrophobic pocket; or L-cysteine was analyzed. Following incubation SP-D structure was assessed by non-reducing denaturing SDS-PAGE.

SNO-SP-D = biological target: T3, SNO-SP-D (Rattus norvegicus, UniProt P35248); assay: Biotin-Switch analysis of SNO-SP-D content; assay type: biochemical; conditions: NO-treated RrSP-D incubated with 1 μM or 10 μM
T3 sequence (P35248 20-374): T1 sequence (P35248 20-374)
Procedure: (§1) RrSP-D was incubated with 100 μM of nitric oxide for 30 minutes to generate SNO-SP-D (FIG. 14A). The resultant protein was incubated with CJ-1 (1 μM or 10 μM). The protein samples were subjected to Biotin-Switch analysis to determine SNO-SP-D content. Lane 1 untreated RrSP-D; Lane 2 NO-treated RrSP-D; Lane 3 NO-treated RrSP-D+1 μM CJ-1; Lane 4 NO-treated RrSP-D+10 μM CJ-1. […] The chemoattractive activity to RAW 264.7 cells was assayed using a Boydin Chamber.

RAW 264.7 cells [1] = assay: Chemotactic activity, Boydin Chamber; assay type: cell-based; conditions: SNO-SP-D samples treated with 1 μM or 10 μM
Procedure: as §1

RAW 264.7 cells [2] = assay: Real-time qPCR of pro-inflammatory mediator mRNA (IL-1β, iNOS, ptgs2, CCL2); assay type: cell-based; conditions: 10 μM, 3 hours, without LPS
Procedure: Raw 264.7 cells were incubated with or without CJ-1 (10 μM) or SNO-CJ-1 (10 μM) for 3 hours (FIG. 17A) or incubated with or without CJ-1 (10 μM) or SNO-CJ-1 (10 μM) for 20 minutes and treated with LPS (1 ng/mL) for an additional 3 hours (FIG. 17B). The cells were lysed and total RNA was isolated and subjected to real-time qPCR for mRNA expression of IL-1β, iNOS, ptgs2 and CCL2. SNO-CJ-1 inhibits mRNA expression of pro-inflammatory mediators.

HIV gp120 LAV = HIV gp120 LAV (Human immunodeficiency virus type 1 group M subtype B, UniProt P03377); conditions: preincubated, denatured, SDS PAGE, Coomassie blue
Procedure: Peptides were designed to disrupt HIV gp120 formation. […] HIV gp120 LAV preincubated without (lane 1) or with DTT (lane 2), L-cysteine (lane 3), CJ-3 (lane 4) CJ-4 (lane 5) or CJ-3 and CJ-4 (lane 6) was denatured and subjected to SDS PAGE gel electrophoresis. The resulted proteins were visualized by Coomassie blue staining (FIG. 15C).

HIV X4 strain NL4-3 = assay: HIV reverse transcriptase (RT) assay in supernatants of infected Jurkat T cells; assay type: cell-based; conditions: NL4-3 preincubated 1 hour at 37° C.; Jurkat T cells infected 16 hours; supernatants day 6 postinfection
Procedure: The HIV X4 strain NL4-3 was preincubated without (control) or with peptide CJ-2 which was a peptide with two cysteines in the hydrophilic domain, peptide CJ-3 which was derived from gp120, or peptide CJ-4 which was derived from gp41 for 1 hour at 37° C. at the concentrations indicated. The Jurkat T cells (0.5×10^6 cell/ml) were infected by NL4-3 (30 ng/ml) for 16 hours and washed. The supernatants at day 6 postinfection was collected and subjected to HIV reverse transcriptase (RT) assay. The data are shown represent the mean±SD of duplicate cultures (FIG. 15D).

Molecule	disruption of the SP-D multimer (SP-D multimer)	disruption of SP-D structure (specificity) (RrSP-D)	disruption of the structure of HIV gp120 LAV (HIV gp120 LAV)	inhibition of HIV (RT activity in supernatants) (HIV X4 strain NL4-3)	further results
O=C(/C=C/c1ccc(O)c(O)c1)OCCc1ccccc1 [CAPE, caffeic acid phenethyl ester]	–	–	–	–	effect on SNO-OE-BAL mediated increase in iNOS expression (RAW cells): completely abrogated the increase in iNOS expression
N[C@@H](CSN=O)C(=O)O [L-SNOC, L-S-nitroso-cysteine]	capable of disrupting the SP-D multimer at high concentration	–	–	–	disruption of native SP-D multimers (SP-D multimer; BAL from SP-D overexpressing mice or 0.2 μM recombinant SP-D treated with L-SNOC, native electrophoresis, Western blot): disruption of the native multimers to dodecamers and trimers
N[C@@H](CS)C(=O)O [L-cysteine, reference compound]	capable of disrupting the SP-D multimer at high concentration	Only CJ-1 is capable of disrupting SP-D structure	–	–	–
AEMKSLSQRSVPNTCTLVMCSPTE [CJ-1]	–	capable of disrupting SP-D structure	–	–	disruption of SP-D, dose dependence (RrSP-D; RrSP-D 50 ng, 0.01-10 mM, 37° C., 20 minutes): disrupts SP-D in a dose-dependent manner; disruption of SP-D trimers (RrSP-D; RrSP-D 50 ng, 10 mM, 37° C., 20 minutes, SDS PAGE, Western blot): disrupts SP-D trimers; SNO-SP-D content (S-nitrosothiol) (SNO-SP-D): depleted S-nitrosothiol from SNO-SP-D; SNO-SP-D induced RAW 264.7 cell migration (RAW 264.7 cells [1]): inhibits the ability of SNO-SP-D to induce RAW 264.7 cell migration; induction of transcription of inflammatory genes (RAW 264.7 cells [2]): capable of inducing transcription of inflammatory genes within macrophages
LVWEDLRNLCLFSYRLLR [CJ-4, peptide derived from gp41]	–	–	disrupted the structure of HIV gp120 LAV	inhibited HIV	–
VPVWKDAETTLFCASDAK [CJ-3, peptide derived from gp120]	–	–	disrupted the structure of HIV gp120 LAV	inhibited HIV	–
